Data taken from paper PMC7566913, “Dual Gene Delivery Reagents From Antiproliferative Alkylphospholipids for Combined Antitumor Therapy” (Frontiers in Chemistry, 2020).
“And” between values parts separate entries of the source, which are not always exact repeats. Equal entries are not always repeated. Where two headings read alike, the source gives them in different places.

Assays:
A549 cells [1] = test: Gene transfer efficiency, pCMV-Gluc luciferase reporter gene assay; type: cell-based, human
From the text: The efficacy of the pro-APLs to mediate intracellular delivery of a plasmid DNA was examined in A549 human lung epithelial carcinoma cells using the pCMV-Gluc reporter gene encoding the luciferase of Gaussia princeps. This luciferase is secreted by cells and transgene expression can be conveniently assessed by standard bioluminescence measurements on aliquots of the cell culture supernatant, without need for prior cell lysis. Lipoplexes were formulated in glucose 5% at N/P ratios of 1, 3, and 5, with increasing amounts of DOPE as a helper lipid. They were deposited onto cells in the presence of 10% serum and luciferase activity was measured after 24 h (Figure 3). […] The influence of the nature of the pendant hydrophobic arm was also examined.
To investigate the effect of serum on the gene delivery properties of the APL prodrugs, cells were treated with lipoplexes in the presence of an increasing concentration of serum (Figure 5). Two DNA doses were considered.
Figure 5 Transfection efficiency of pro-APLs ME12 (A), PE12 (B), and EE12 (C) as a function of serum content. Pro-APL/DNA complexes were prepared at N/P 3, with 1 molar eq. of DOPE. A549 cells (6,000 cells/well) were seeded into 96-well plates in 100 μL of culture medium containing 10% serum. Twenty-four hours later, cell supernatant was replaced with culture medium complemented with increasing amounts of serum (from 10 to 75%) just before adding the lipoplexes (0.2 and 0.4 μg of DNA per well; light and deep purple bars, resp.). Control (light blue bar) refers to basal bioluminescence measured in untreated cells. […] Statistical significance vs. control. ***p < 0.001, **p < 0.01, *p < 0.05.

[2] = Hydrolytic stability of the APL prodrugs monitored by 31P-NMR; type: physicochemical
From the text: Aqueous formulation of the APL prodrugs produces nanosized lipid aggregates that most likely enter cells through the endocytosis pathway. To produce the expected intrinsic antineoplastic effect, APL-derived phosphotriesters need to be processed into the bioactive parent APLs. The hydrolysis of the prodrugs may be under the control of a chemical stimulus, e.g., a pH decrease as observed during the maturation of endosomes, or of degradation enzymes that massively enter the endosome compartment when continuing to lysosomes. To get some information on the transformation of pro-APLs into APLs, we monitored the hydrolysis of these compounds over time, at pH 7.4 and 4.5, conditions that mimick the extracellular milieu and the environment of the late endosome, respectively. This monitoring was realized using ^31P-NMR spectroscopy, according to a previously reported method (Pierrat et al., [2013b]). Whatever the compound investigated, only one single ^31P resonance did appear during the course of the experiments, corresponding to that of the parent APL. This confirmed that hydrolysis of the pro-APLs selectively occurred at the acetal center. […] As a general trend, hydrolysis of the pro-APLs was […] under neutral conditions (i.e., pH 7.4) than under acidic ones (i.e., pH 4.5). […] Besides, substitution of one hydrogen atom with a methyl group on the acetal bridge accelerated the rate of hydrolysis of the prodrugs. […] Indeed, in biological media, the enzyme-mediated hydrolysis of such compounds can proceed far quicker than “simple” chemical hydrolysis under pH control (Pierrat et al., [2012]). […]

[3] = Particle size and zeta potential of lipoplexes by DLS; type: physicochemical; details: lipoplexes with pCMV-Gluc, 25 °C, 5 % glucose, N/P 3, 1 molar equivalent of DOPE
From the text: The capacity of the pro-APLs to interact electrostatically with nucleic acids and form lipoplexes was checked by standard agarose gel electrophoresis. […] The size (hydrodynamic diameter) and charge (zeta potential, ζ) of the lipoplexes prepared at an N/P ratio of 3 with one molar equivalent of dioleoyl-sn-glycero-3-phosphatidylethanolamine (DOPE), a lipid with fusogenic properties (Hui et al., [1996]; Zuhorn et al., [2005]), were investigated by DLS (Supplementary Table 1).
as measured by DLS. Lipoplexes were prepared at 25 °C, in 5 % glucose, at a N/P ratio of 3 and with
1 molar equivalent of DOPE.
(Gaillard et al., 2019). Data are the mean of three independent measurements (± SD).

16HBE cells [4] = test: Cytotoxicity, MTT assay, 16HBE; type: cell-based, human; details: 24 h at 37°C
Experimental: (§1) The cells were exposed for a 24-h period to increasing concentration of the pro-APLs, ranging from 500 nM to 1 mM, and cell viability was assessed using the MTT colorimetric assay (Mosmann, [1983]). For the three cell lines, viability decreased in a dose-dependent manner in response to APLs and pro-APLs (Supplementary Figures 2–4). Using the best-fit regression curve method, the IC50 value (concentration that provokes 50% inhibition of the cell growth) was calculated for each compound (Table 4). The three cell lines responded to the compounds with varying sensitivities. […] This is attributed to enzyme-mediated hydrolysis of the pro-APL compounds in the complemented culture medium or in the intracellular compartment, competing with pure pH-controlled chemical hydrolysis. According to its structure, a pro-APL may or not be a substrate for specific lipases and, thus, may or not be hydrolyzed into the parent cytotoxic compound. […]
(§2) At confluency, cells were released […]
(§3) Cells were seeded into 96-well plates (Becton-Dickinson) at the required density (vide supra) in 100 µL of serum containing culture medium. […]
(§4) Mitochondrial activity measurements (MTT assay) was used to assess cytotoxicity of the compounds.
(§5) Lipid samples were prepared from a lipid film (3.6 µmol of compound evaporated from an ethanolic solution) hydrated with aqueous glucose 5 % and vigorously vortexed for 20 s before serial dilution in aqueous glucose 5 %. For addition of lipid samples to cell culture, part of the culture medium in the culture plates prepared the day before (25 µL) was removed and replaced by lipid samples (25 µL). Negative control was obtained by adding glucose 5 % to the cells instead of lipoplexes.
(§6) After a 24-h incubation period at 37 °C, culture supernatant was removed, cells were carefully washed with PBS and MTT (100 µL, 0.5 mg/mL) in complete culture medium was added. After a 1-h incubation period at 37 °C, the MTT sol ution was removed and DMSO (100 µL) was added to lyse cells and dissolve reduced MTT. Intensity of MTT reduction was then evaluated by measuring absorbance at 492 nm. Viability of cells treated with lipids or lipoplexes was expressed as the percentage of the absorbance measured in untreated cells. Value for each sample is the mean of triplicate determinations (± SD). IC50 values were determined within the 95 % confidence interval using nonlinear regression analysis with the GraphPad Prism software (GraphPad Software, San […]
(§7) All data are representative of a triplicate determination and are presented as the mean ± SD.
(§8) Statistical significance between treatments was assessed by one-way analysis of variance (ANOVA) followed by the Dunnett multiple comparison test, using the Kaleidagraph 4.5 software (Synergy Software, Reading, PA, USA). Data were considered as statistically significant for p value less than

A549 cells [5] = test: Cytotoxicity, MTT assay, A549; type: cell-based, human; details: A549, 24 h at 37°C
Experimental: as §1, §2, §3, §4, §5, §6, §7, §8

[6] = CMC/CAC by pyrene fluorescent probe technique in ultrapure water; type: physicochemical; details: pyrene fluorescence
Experimental: The pro-APL molecules have been specifically engineered so they can be metabolized in situ under a biological stimulus to revert to the parent APL with antiproliferative activity. […] We thus aimed to determine the self-assembly properties of the APL prodrugs. […] Pyrene is a probe which fluorescence is sensitive to the polarity of the solubilizing medium. […] Fluorescence measurements were carried out in ultrapure water and data obtained for the various APLs and their prodrugs are shown in Table 2.
Pro-APLs Self-Assembly Properties
Starting from a lipid film, compounds were […]

H292 cells [7] = test: Cytotoxicity, MTT assay, H292; type: cell-based, human
Experimental: as §1, §2, §3, §4, §5, §6, §7, §8

[8] = parameters: method as in Gaillard et al., 2019; details: ref Gaillard et al., 2019, cited from earlier work
A549 cells [9] = test system: A549 cells; parameters: method as in Gaillard et al., 2019; details: A549, 24 h at 37°C, MTT assay; ref Gaillard et al., 2019; cited from earlier work
16HBE cells [10] = test system: 16HBE cells; parameters: method as in Gaillard et al., 2019; details: 24 h at 37°C, MTT assay, ref Gaillard et al., 2019; cited from earlier work
[11] = parameters: method as in Gaillard et al., 2019; details: lipoplexes with pCMV-Gluc, N/P 3, 1 molar equivalent of DOPE; ref Gaillard et al., 2019; cited from earlier work
H292 cells [12] = test system: H292 cells; parameters: method as in Gaillard et al., 2019; details: H292, 24 h at 37°C, MTT assay; ref Gaillard et al., 2019; cited from earlier work
[13] = parameters: method as in Gaillard et al., 2019; details: pyrene fluorescence; ref Gaillard et al., 2019; cited from earlier work
sheep RBC [14] = details: sheep RBC, 37°C, ref Gaillard et al., 2019, cited from earlier work
sheep RBC [15] = test: Hemolytic activity, red blood cell leakage assay; details: 37°C

Molecule	H120 (hydrolysis rate after a 120-h incubation period) ([8]; pH 4.5) [%]	H120 (hydrolysis rate after a 120-h incubation period) ([8]; pH 7.4) [%]	IC50 (A549 cells [9]) [µM]	IC50 (16HBE cells [10]) [µM]	Particle size of lipoplexes [11]	IC50 (H292 cells [12]) [µM]	CMC (APLs) / CAC (pro-APLs) [13] [µM]	HA200 (hemolytic activity at 200 μM) (sheep RBC [14]; 1 h) [%]	HA200 (hemolytic activity at 200 μM) (sheep RBC [14]; 24 h) [%]	other results
3-((((((Dodecyloxy)carbonyl)oxy)ethoxy)(hexadecyloxy)phosphoryl)oxy)-N,N,N-trimethylpropan-1-aminium chloride [M C^′12]										Transfection rate relative to MC12 (A549 cells [1]; A549, pCMV-Gluc lipoplexes, 10% serum, 24 h): ca. 2 fold; H120 (hydrolysis rate after a 120-h incubation period) ([2]; pH 4.5): 13%; H120 (hydrolysis rate after a 120-h incubation period) ([2]; pH 7.4): 14%; Particle size of lipoplexes [3]: 91 ± 3 nm; IC50 (16HBE cells [4]): 66 ± 27 µM; IC50 (A549 cells [5]): 48 ± 15 µM; CMC (APLs) / CAC (pro-APLs) [6]: 2.0 ± 0.7 µM; IC50 (H292 cells [7]; H292, 24 h at 37°C): 146 ± 37 µM
CCCCCCCC/C=C\CCCCCCCCCCCCOP(=O)(OCCCCCCCCCCCC)OCCC[N+](C)(C)C (stereo not drawn) [Compound E12]	0	0	81 ± 7	225 ± 31	194 ± 28 nm and 194 nm	124 ± 11	0.7 ± 0.3	1.9 ± 0.7	12.0 ± 1.9	Hydrolytic stability after extended incubation ([8]; pH 7.4 and pH 4.5, 31 days): fully stable
CCCCCCCC/C=C\CCCCCCCCCCCCOP(=O)(OCCC[N+](C)(C)C)OC(C)OC(=O)OCCCCCCCCCCCC (stereo not drawn) [E C^′12]	5	6	179 ± 63	257 ± 81	92 ± 10 nm	161 ± 25	0.9 ± 0.2	< 1	7.3 ± 0.8	
CCCCCCCC/C=C\CCCCCCCCCCCCOP(=O)(OCCC[N+](C)(C)C)OC(C)OC(=O)CCCCCCCCCCC (stereo not drawn) [E E^′12]	53	56	192 ± 44	63 ± 7	149 ± 15 nm	73 ± 15	1.1 ± 0.7		25.3 ± 2.6	t1/2 (time needed for 50% hydrolysis) ([8]; pH 4.5): 104 h; t1/2 (time needed for 50% hydrolysis) ([8]; pH 7.4): 96 h
CCCCCCCC/C=C\CCCCCCCCCCCCOP(=O)(OCCC[N+](C)(C)C)OCOC(=O)OCCCCCCCCCCCC (stereo not drawn) [EC12]	1	8	161 ± 21	252 ± 112	117 ± 15 nm	167 ± 56	1.2 ± 0.2	< 1	9.6 ± 2.3	
CCCCCCCC/C=C\CCCCCCCCCCCCOP(=O)(OCCC[N+](C)(C)C)OCOC(=O)OCCCCCCCC/C=C\CCCCCCCC (stereo not drawn) [EC18:1]	0	10	326 ± 36	238 ± 58	611 ± 12 nm and 611 nm	154 ± 40	0.8 ± 0.4	< 1	20.9 ± 2.5	
CCCCCCCCCCCCCCCCOP(=O)(OCC[N+](C)(C)C)OCOC(=O)CCCCCCCCCCC.[Cl-] (stereo not drawn) [ME12, 2-((((Dodecanoyloxy)methoxy)(hexadecyloxy)phosphoryl)oxy)-N,N,N-trimethylethan-1-aminium chloride]										HA200 (hemolytic activity at 200 μM) (sheep RBC [15]; 1 h): 18.0 ± 1.2%; HA200 (hemolytic activity at 200 μM) (sheep RBC [15]; 24 h): 103.2 ± 3.6%; Serum content up to which significant transgene expression was mediated (A549 cells [1]; A549, N/P 3, 1 eq. DOPE, DNA dose 0.2 μg/well): up to 50 % serum; Serum content up to which transfection activity extended (A549 cells [1]; A549, N/P 3, 1 eq. DOPE, DNA dose 0.4 μg/well): up to 75 % serum; H120 (hydrolysis rate after a 120-h incubation period) ([2]; pH 4.5): 3%; H120 (hydrolysis rate after a 120-h incubation period) ([2]; pH 7.4): 20%; Particle size of lipoplexes [3]: 178 ± 8 nm; IC50 (16HBE cells [4]; Homo sapiens): 69 ± 26 µM; IC50 (A549 cells [5]; Homo sapiens): 39 ± 7 µM; CMC (APLs) / CAC (pro-APLs) [6]: 4.3 ± 2.5 µM; IC50 (H292 cells [7]; Homo sapiens, NCI-H292, H292, 24 h at 37°C): 52 ± 28 µM
